Source: patent US20230107642A1 (Erasca, Inc., priority 2020, published 2023)

System: not listed separately
Assay: Determination of total drug concentration in rat brain (BBB penetration)
Type: in vivo
Conditions: male SD rat, 2 mg/kg IV infusion for 4 hours, brain collected at end of 4 hours
Description: BB. Example 9: Determination of Total Drug Concentration in Rat Brain
In Vivo Experimental Procedures
Infuse male SD rat at 2 mg/kg dose for 4 hours through IV administration route. Collect brain tissues at the end of 4 hours.
Sample Preparation Procedures
Dilute brain tissue by adding homogenization solvent (1:4, w/v). Homogenize diluted brain tissue samples. Extract analyte by adding organic solvent (1:4, v/v) with spiked internal standard. Vortex and centrifuge the samples. Remove supernatant and dilute with HPLC compatible solvent (1:3, v/v).
Inject diluted extract into LC-MS/MS system using reversed phase high performance liquid chromatography coupled with electrospray ionization and selected reaction monitoring. Determine the total drug concentration in brain samples by quantitating against the standard curve prepared using the same matrix.
The following data provides blood brain barrier (BBB) penetration activity for a selection of inventive compounds where were directly compared to sotorasib and adagrasib (concentration in brain measured in ng/g).
Compounds that were measured as having a total concentration in the brain of at least 60 ng/g are indicated as “+”.

Q: For C=CC(=O)N1C[C@H](C)N(c2nc(=O)n3c4c(c(-c5ccc(F)cc5F)c(C(F)(F)F)cc24)SC[C@@H]3COC)C[C@H]1C (atropisomer, axis not shown) [Example 13-1], which BBB activity is on record?
A: + (Compounds that were measured as having a total concentration in the brain of at least 60 ng/g are indicated as “+”)

Q: For C=CC(=O)N1[C@H](C)CN(c2nc(=O)n3c4c(c(-c5cc(Cl)c(F)cc5F)c(C(F)(F)F)cc24)SC[C@@H]3COC)C[C@@H]1C (atropisomer, axis not shown) [Example 13-2], which BBB activity is on record?
A: + (Compounds that were measured as having a total concentration in the brain of at least 60 ng/g are indicated as “+”)

Q: For C=CC(=O)N1[C@H](C)CN(c2nc(=O)n3c4c(c(-c5ccc(Cl)cc5F)c(C(F)(F)F)cc24)SC[C@@H]3COC)C[C@@H]1C (atropisomer, axis not shown) [Example 13-3], which BBB activity is on record?
A: + (Compounds that were measured as having a total concentration in the brain of at least 60 ng/g are indicated as “+”)

Q: With C=CC(=O)N1[C@H](C)CN(c2nc(=O)n3c4c(c(-c5cc(Br)c(F)cc5F)c(C(F)(F)F)cc24)SC[C@@H]3COC)C[C@@H]1C (atropisomer, axis not shown) [Example 13-4] as the compound, how does the BBB activity read?
A: + (Compounds that were measured as having a total concentration in the brain of at least 60 ng/g are indicated as “+”)

Q: Which BBB activity does the source give for C=CC(=O)N1[C@H](C)CN(c2nc(=O)n3c4c(c(-c5cc(Br)c(F)cc5F)c(C(F)(F)F)cc24)SC[C@@H]3CC)C[C@@H]1C (atropisomer, axis not shown) [Example 13-6] here?
A: + (Compounds that were measured as having a total concentration in the brain of at least 60 ng/g are indicated as “+”)

Q: With C=CC(=O)N1CCN(c2nc(=O)n3c4c(c(-c5cc(Cl)c(F)cc5F)c(C(F)(F)F)cc24)SC[C@@H]3COC)CC1 (atropisomer, axis not shown) [Example 13-7] as the compound, how does the BBB activity read?
A: + (Compounds that were measured as having a total concentration in the brain of at least 60 ng/g are indicated as “+”)

Q: For C=CC(=O)N1[C@H](C)CN(c2nc(=O)n3c4c(c(-c5cc(Cl)c(F)cc5F)c(C(F)(F)F)cc24)SC[C@@H]3CC)C[C@@H]1C (atropisomer, axis not shown) [Example 13-8], which BBB activity is on record?
A: + (Compounds that were measured as having a total concentration in the brain of at least 60 ng/g are indicated as “+”)

Q: Which BBB activity does the source give for C=CC(=O)N1[C@H](C)CN(c2nc(=O)n3c4c(c(-c5cc(I)c(F)cc5F)c(C(F)(F)F)cc24)SC[C@@H]3COC)C[C@@H]1C (atropisomer, axis not shown) [Example 13-12] here?
A: + (Compounds that were measured as having a total concentration in the brain of at least 60 ng/g are indicated as “+”)

Q: With C=CC(=O)N1[C@H](C)CN(c2nc(=O)n3c4c(c(-c5ccc(F)cc5F)c(C(F)(F)F)cc24)SC[C@@H]3COC)C[C@@H]1C (atropisomer, axis not shown) [Example 13-15] as the compound, how does the BBB activity read?
A: + (Compounds that were measured as having a total concentration in the brain of at least 60 ng/g are indicated as “+”)

Q: Which BBB activity does the source give for C=CC(=O)N1CCN(c2nc(=O)n3c4c(c(-c5ccc(F)cc5F)c(C(F)(F)F)cc24)SC[C@@H]3COC)CC1 (atropisomer, axis not shown) [Example 13-17] here?
A: + (Compounds that were measured as having a total concentration in the brain of at least 60 ng/g are indicated as “+”)

Q: With C=CC(=O)N1[C@H](C)CN(c2nc(=O)n3c4c(c(-c5cc(Cl)c(F)cc5F)c(C(F)(F)F)cc24)SC[C@@H](OC)C3)C[C@@H]1C (atropisomer, axis not shown) [Example 13-39] as the compound, how does the BBB activity read?
A: + (Compounds that were measured as having a total concentration in the brain of at least 60 ng/g are indicated as “+”)

Q: With C=CC(=O)N1[C@H](C)CN(c2nc(=O)n3c4c(c(-c5cc(Cl)c(F)cc5F)c(C(F)(F)F)cc24)SCC2(COC2)C3)C[C@@H]1C (atropisomer, axis not shown) [Example 13-44] as the compound, how does the BBB activity read?
A: + (Compounds that were measured as having a total concentration in the brain of at least 60 ng/g are indicated as “+”)

Q: With C=CC(=O)N1[C@H](C)CN(c2nc(=O)n3c4c(c(-c5ccc(F)cc5F)c(C(F)(F)F)cc24)SC[C@@H](OCC)C3)C[C@@H]1C (atropisomer, axis not shown) [Example 13-52] as the compound, how does the BBB activity read?
A: − (Compounds that did not meet this threshold are indicated as “−”)

Q: Which BBB activity does the source give for C=CC(=O)N1[C@H](C)CN(c2nc(=O)n3c4c(c(-c5ccc(F)cc5F)c(C(F)(F)F)cc24)SC[C@@H](OCC)C3)C[C@@H]1C (atropisomer, axis not shown) [Example 13-58] here?
A: − (Compounds that did not meet this threshold are indicated as “−”)

Q: Which BBB activity does the source give for C=CC(=O)N1[C@H](C)CN(c2nc(=O)n3c4c(c(-c5ccc(F)cc5F)c(C(F)(F)F)cc24)SC[C@@H]3COCOC)C[C@@H]1C (atropisomer, axis not shown) [Example 13-60] here?
A: − (Compounds that did not meet this threshold are indicated as “−”)

Q: Which BBB activity does the source give for C=CC(=O)N1[C@H](C)CN(c2nc(=O)n3c4c(c(-c5cc(Cl)c(F)cc5F)c(C(F)(F)F)cc24)SC[C@@H]3COCOC)C[C@@H]1C (atropisomer, axis not shown) [Example 13-62] here?
A: − (Compounds that did not meet this threshold are indicated as “−”)

Q: For C=CC(=O)N1[C@H](C)CN(c2nc(=O)n3c4c(c(-c5cc(Br)c(F)cc5F)c(C(F)(F)F)cc24)SC[C@@H](OC)C3)C[C@@H]1C (atropisomer, axis not shown) [Example 13-70], which BBB activity is on record?
A: − (Compounds that did not meet this threshold are indicated as “−”)

Q: With C=CC(=O)N1C[C@H](C)N(c2nc(=O)n3c4c(c(-c5cc(Cl)c(F)cc5F)c(C(F)(F)F)cc24)SC[C@@H]3CN2C[C@@H]3C[C@H]2CO3)C[C@H]1C (atropisomer, axis not shown) [Example 13-71] as the compound, how does the BBB activity read?
A: − (Compounds that did not meet this threshold are indicated as “−”)

Q: With C=CC(=O)N1[C@H](C)CN(c2nc(=O)n3c4c(c(-c5cc(Cl)c(F)cc5F)c(C(F)(F)F)cc24)SC[C@@H](Nc2ncccn2)C3)C[C@@H]1C (atropisomer, axis not shown) [Example 13-73] as the compound, how does the BBB activity read?
A: − (Compounds that did not meet this threshold are indicated as “−”)

Biological target: T1, Cys12 of the KRAS 4B G12C protein (Homo sapiens, UniProt P01116, G12C)
T1 construct: This protein contained 188 amino acids in total, including an N-terminal 6-Histidine tag; made in house; host or cells: E. coli BL21
Assay: In vitro covalent adduct formation (CAF) assay, LC-MS intact mass
Type: binding
Conditions: 10 uM compound, 60 min
How it was run: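 Percent covalent modification from intact-mass LC-MS, by relative free versus adducted protein (adducts within 1 Da of expected mass). Reaction: 10 μM compound with 5 μM E. coli-expressed, GDP-exchanged KRAS 4B G12C in TBS pH 7.4, 4% DMSO, 1 h at 22° C.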

Q: With C=CC(=O)N1[C@H](C)CN(c2nc(=O)n3c4c(c(-c5ccc(F)cc5)c(C(F)(F)F)cc24)SC[C@@H](N2CCCC2=O)C3)C[C@@H]1C [Example 1450, (S)-8-((3S,5R)-4-acryloyl-3,5-dimethylpiperazin-1-yl)-11-(4-fluorophenyl)-3-(2-oxopyrrolidin-1-yl)-10-(trifluoromethyl)-3,4-dihydro-2H,6H-[1,4]thiazepino[2,3,4-ij]quinazolin-6-one] as the compound, how does the “% CAF 10 uM @ 60 min” value read?
A: 96%

Q: For C=CC(=O)N1[C@H](C)CN(c2nc(=O)n3c4c(c(-c5ccc(F)cc5F)c(C(F)(F)F)cc24)SC[C@@H]3CC)C[C@@H]1C [Example 1451, (3S)-7-((3S,5R)-4-acryloyl-3,5-dimethylpiperazin-1-yl)-10-(2,4-difluorophenyl)-3-ethyl-9-(trifluoromethyl)-2,3-dihydro-5H-[1,4]thiazino[2,3,4-ij]quinazolin-5-one], which “% CAF 10 uM @ 60 min” value is on record?
A: 95%

Q: For C=CC(=O)N1[C@H](C)CN(c2nc(=O)n3c4c(c(-c5cc(Br)c(F)cc5F)c(C(F)(F)F)cc24)SCC2(COC2)C3)C[C@@H]1C [Example 1452, 8′-((3S,5R)-4-acryloyl-3,5-dimethylpiperazin-1-yl)-11′-(5-bromo-2,4-difluorophenyl)-10′-(trifluoromethyl)-2′H,4′H,6′H-spiro[oxetane-3,3′-[1,4]thiazepino[2,3,4-ij]quinazolin]-6′-one], which “% CAF 10 uM @ 60 min” value is on record?
A: 97%

Q: Which “% CAF 10 uM @ 60 min” value does the source give for C=CC(=O)N1C[C@H](C)N(c2nc(=O)n3c4c(c(-c5cc(O)c(F)cc5F)c(C(F)(F)F)cc24)SCC2(COC2)C3)C[C@H]1C [Example 1454, 8′-((2S,5R)-4-acryloyl-2,5-dimethylpiperazin-1-yl)-11′-(2,4-difluoro-5-hydroxyphenyl)-10′-(trifluoromethyl)-2′H,4′H,6′H-spiro[oxetane-3,3′-[1,4]thiazepino[2,3,4-ij]quinazolin]-6′-one] here?
A: 92%

Q: With C=CC(=O)N1C[C@H](C)N(c2nc(=O)n3c4c(c(-c5cc(Br)c(F)cc5F)c(C(F)(F)F)cc24)SCC2(CCOCC2)C3)C[C@H]1C [Example 1455, 8′-((2S,5R)-4-Acryloyl-2,5-dimethylpiperazin-1-yl)-11′-(5-bromo-2,4-difluorophenyl)-10′-(trifluoromethyl)-2,3,5,6-tetrahydro-2′H,4′H,6′H-spiro[pyran-4,3′-[1,4]thiazepino[2,3-4-ij]quinazolin]-6′-one] as the compound, how does the “% CAF 10 uM @ 60 min” value read?
A: 66%

Q: Which “% CAF 10 uM @ 60 min” value does the source give for “(3S,10R)-7-((2S,5R)-4-acryloyl-2,5-dimethylpiperazin-1-yl)-10-(5-chloro-2,4-difluorophenyl)-3-((4-cyclopropylpiperazin-1-yl)methyl)-9-(trifluoromethyl)-2,3-dihydro-5H-[1,4]thiazino[2,3,4-ij]quinazolin-5-one [Example 1360]” here?
A: 92.8%

Q: With “(3S,10S)-7-((2S,5R)-4-acryloyl-2,5-dimethylpiperazin-1-yl)-10-(5-chloro-2,4-difluorophenyl)-3-((4-cyclopropylpiperazin-1-yl)methyl)-9-(trifluoromethyl)-2,3-dihydro-5H-[1,4]thiazino[2,3,4-ij]quinazolin-5-one [Example 1361]” as the compound, how does the “% CAF 10 uM @ 60 min” value read?
A: 29.8%
